Measured values from PubChem BioAssay AID192 (DTP/NCI, 2004).
Several values for one entry are separate records, joined by “and”; a condition that tells them apart may be missing. Equal values may be shown once. Toxic doses and inconclusive results are not listed. Peptide text beside a SMILES is read from it.

System: BDF1 mice, B16 melanoma ip, median survival T/C
Assay: NCI In Vivo Anticancer Drug Screen. Data for tumor model B16 Melanoma (intraperitoneal) in B6D2F1 (BDF1) mice
Details: endpoint: median survival time, higher = longer survival
Procedure, shortened: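 The ratio T/C compares compound-treated mice with vehicle-treated controls, using survival or tumor size as the endpoint in a transplantable tumor model.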

[1] = dose: 25.0 mg/kg/injection, schedule: Q01DX009 (ip), vehicle: saline
[2] = dose: 0.05 mg/kg/injection, schedule: Q01DX009 (ip), vehicle: saline
[3] = dose: 0.1 mg/kg/injection, schedule: Q01DX009 (ip), vehicle: saline

With `NC(N)=NCCCC(N)C(=O)NC(CCC(=O)O)C(=O)O` (stereo not drawn) (H-Arg-Glu-OH; configuration not given here) as the compound, how does the T/C [1] read?
Its T/C is 108 % of control.

What about the T/C (dose: 50.0 mg/kg/injection, schedule: Q01DX009 (ip), vehicle: saline) of the same compound?
Its T/C is 96 % of control.

And the T/C (dose: 100.0 mg/kg/injection, schedule: Q01DX009 (ip), vehicle: saline)?
Its T/C is 104 % of control.

And the T/C (dose: 200.0 mg/kg/injection, schedule: Q01DX009 (ip), vehicle: saline)?
Its T/C is 102 % of control.

What about the T/C (dose: 400.0 mg/kg/injection, schedule: Q01DX009 (ip), vehicle: saline) of the same compound?
The T/C was 101 % of control.

What does the source list for `COc1cccc2c1C(=O)c1c(O)c3c(c(O)c1C2=O)C[C@@](O)(C(=O)COC(=O)Cc1cccc2ccccc12)C[C@@H]3OC1CC(N)C(O)C(C)O1` (some centres not stated)?
T/C (dose: 0.5 mg/kg/injection, schedule: Q01DX009 (ip), vehicle: saline with Tween-80): 169 % of control; T/C (dose: 1.0 mg/kg/injection, schedule: Q01DX009 (ip), vehicle: saline with Tween-80): 150 % of control and 227 % of control; T/C (dose: 2.0 mg/kg/injection, schedule: Q01DX009 (ip), vehicle: saline with Tween-80): 169 % of control and 238 % of control; T/C (dose: 4.0 mg/kg/injection, schedule: Q01DX009 (ip), vehicle: saline with Tween-80): 192 % of control and 284 % of control

How did the T/C (dose: 0.75 mg/kg/injection, schedule: Q01DX009 (ip), vehicle: saline with Tween-80) turn out when `c1ccc2c(c1)[As]=c1ccccc1=[As]2` (configuration not stated) was run?
The T/C was 104 % of control.

What about the T/C (dose: 1.5 mg/kg/injection, schedule: Q01DX009 (ip), vehicle: saline with Tween-80) of the same compound?
The T/C was 106 % of control.

And the T/C (dose: 3.0 mg/kg/injection, schedule: Q01DX009 (ip), vehicle: saline with Tween-80)?
The T/C was 100 % of control.

And the T/C (dose: 6.0 mg/kg/injection, schedule: Q01DX009 (ip), vehicle: saline with Tween-80)?
The T/C was 110 % of control.

For `O=S1(=O)CC(Cl)C(Cl)C1` (configuration not stated), which T/C (dose: 3.12 mg/kg/injection, schedule: Q01DX009 (ip), vehicle: Klucel (hydroxypropylcellulose) (HPC)) is on record?
Its T/C is 91 % of control.

What about the T/C (dose: 12.5 mg/kg/injection, schedule: Q01DX009 (ip), vehicle: Klucel (hydroxypropylcellulose) (HPC)) of the same compound?
The T/C was 96 % of control.

How did the T/C (dose: 12.5 mg/kg/injection, schedule: Q04DX003 (ip), vehicle: saline) turn out when `Cc1cc2ccccc2c[n+]1C` was run?
The T/C was 95 % of control.

And the T/C (dose: 25.0 mg/kg/injection, schedule: Q04DX003 (ip), vehicle: saline)?
The T/C was 95 % of control.

And the T/C (dose: 50.0 mg/kg/injection, schedule: Q04DX003 (ip), vehicle: saline)?
Its T/C is 95 % of control.

`[N-]=[N+]=CC(=O)CCC(N)C(=O)O` (configuration not stated) was tested. Which T/C (dose: 0.03 mg/kg/injection, schedule: Q01DX009 (ip), vehicle: saline with Tween-80) did it give?
Its T/C is 95 % of control.

What about the T/C [2] of the same compound?
Its T/C is 115 % of control.

What about the T/C (dose: 0.06 mg/kg/injection, schedule: Q01DX009 (ip), vehicle: saline with Tween-80) of the same compound?
The T/C was 91 % of control.

What about the T/C [3] of the same compound?
The T/C was 104 % of control.

What about the T/C (dose: 0.12 mg/kg/injection, schedule: Q01DX009 (ip), vehicle: saline with Tween-80) of the same compound?
The T/C was 95 % of control.

What about the T/C (dose: 0.13 mg/kg/injection, schedule: Q01DX009 (ip), vehicle: saline) of the same compound?
Its T/C is 102 % of control.

And the T/C (dose: 6.2 micrograms/kg/injection, schedule: Q01DX009 (ip), vehicle: saline)?
Its T/C is 91 % of control.

What about the T/C (dose: 12.5 micrograms/kg/injection, schedule: Q01DX009 (ip), vehicle: saline) of the same compound?
Its T/C is 92 % of control.

What about the T/C (dose: 25.0 micrograms/kg/injection, schedule: Q01DX009 (ip), vehicle: saline) of the same compound?
Its T/C is 109 % of control.

For `CC[C@]1(O)C[C@H]2CN(CCc3c([nH]c4ccccc34)[C@@](C(=O)OC)(c3cc4c(cc3OC)N(C)[C@H]3[C@@](O)(C(=O)OC)[C@H](OC(C)=O)[C@]5(CC)C=CCN6CC[C@]43[C@@H]65)C2)C1`, which T/C (dose: 0.03 mg/kg/injection, schedule: Q01DX009 (ip), vehicle: saline) is on record?
Its T/C is 152 % of control.

What about the T/C [2] of the same compound?
Its T/C is 161 % of control.

What about the T/C (dose: 0.06 mg/kg/injection, schedule: Q01DX009 (ip), vehicle: water) of the same compound?
Its T/C is 165 % of control.

And the T/C [3]?
The T/C was 152 % of control and 155 % of control.

What about the T/C (dose: 0.12 mg/kg/injection, schedule: Q01DX009 (ip), vehicle: water) of the same compound?
The T/C was 110 % of control.

And the T/C (dose: 0.2 mg/kg/injection, schedule: Q01DX009 (ip), vehicle: saline)?
The T/C was 186 % of control and 189 % of control.

What about the T/C (dose: 0.22 mg/kg/injection, schedule: Q01DX009 (ip), vehicle: saline) of the same compound?
Its T/C is 196 % of control.

And the T/C (dose: 0.22 mg/kg/injection, schedule: Q01DX009 (ip), vehicle: water)?
The T/C was 197 % of control.

What about the T/C (dose: 0.25 mg/kg/injection, schedule: Q01DX009 (ip), vehicle: water) of the same compound?
The T/C was 163 % of control and 216 % of control.

And the T/C (dose: 0.36 mg/kg/injection, schedule: Q01DX009 (ip), vehicle: saline)?
The T/C was 240 % of control.

What about the T/C (dose: 0.36 mg/kg/injection, schedule: Q01DX009 (ip), vehicle: water) of the same compound?
The T/C was 181 % of control.

And the T/C (dose: 0.39 mg/kg/injection, schedule: Q04DX003 (ip), vehicle: saline)?
The T/C was 162 % of control.

What about the T/C (dose: 0.4 mg/kg/injection, schedule: Q01DX009 (ip), vehicle: saline) of the same compound?
Its T/C is 219 % of control.

What about the T/C (dose: 0.5 mg/kg/injection, schedule: Q04DX003 (ip), vehicle: saline) of the same compound?
The T/C was 154 % of control.

And the T/C (dose: 0.6 mg/kg/injection, schedule: Q01DX009 (ip), vehicle: saline)?
The T/C was 250 % of control.

What about the T/C (dose: 0.63 mg/kg/injection, schedule: Q04DX003 (ip), vehicle: saline) of the same compound?
Its T/C is 151 % of control.

And the T/C (dose: 0.65 mg/kg/injection, schedule: Q04DX003 (ip), vehicle: saline)?
Its T/C is 164 % of control.

What about the T/C (dose: 0.8 mg/kg/injection, schedule: Q01DX009 (ip), vehicle: saline) of the same compound?
The T/C was 260 % of control and 299 % of control.

What about the T/C (dose: 0.8 mg/kg/injection, schedule: Q04DX003 (ip), vehicle: water) of the same compound?
The T/C was 161 % of control.

What about the T/C (dose: 1.0 mg/kg/injection, schedule: Q04DX003 (ip), vehicle: saline) of the same compound?
The T/C was 170 % of control.

What about the T/C (dose: 1.08 mg/kg/injection, schedule: Q04DX003 (ip), vehicle: saline) of the same compound?
Its T/C is 201 % of control.

And the T/C (dose: 1.44 mg/kg/injection, schedule: Q04DX003 (ip), vehicle: water)?
The T/C was 190 % of control.

And the T/C (dose: 1.8 mg/kg/injection, schedule: Q04DX003 (ip), vehicle: saline)?
Its T/C is 206 % of control.

What about the T/C (dose: 2.0 mg/kg/injection, schedule: Q04DX003 (ip), vehicle: saline) of the same compound?
The T/C was 212 % of control.

What about the T/C (dose: 2.4 mg/kg/injection, schedule: Q04DX003 (ip), vehicle: water) of the same compound?
The T/C was 221 % of control.

And the T/C (dose: 2.5 mg/kg/injection, schedule: Q04DX003 (ip), vehicle: saline)?
Its T/C is 189 % of control.

And the T/C (dose: 3.2 mg/kg/injection, schedule: Q04DX003 (ip), vehicle: water)?
The T/C was 224 % of control.

And the T/C (dose: 4.0 mg/kg/injection, schedule: Q04DX003 (ip), vehicle: saline)?
Its T/C is 254 % of control.

And the T/C (dose: 4.8 mg/kg/injection, schedule: Q01DX001 (ip), vehicle: water)?
The T/C was 158 % of control.

And the T/C (dose: 216.0 micrograms/kg/injection, schedule: Q01DX009 (ip), vehicle: saline)?
Its T/C is 197 % of control.

What about the T/C (dose: 360.0 micrograms/kg/injection, schedule: Q01DX009 (ip), vehicle: water) of the same compound?
Its T/C is 155 % of control.

And the T/C (dose: 389.0 micrograms/kg/injection, schedule: Q04DX003 (ip), vehicle: saline)?
The T/C was 158 % of control and 163 % of control.

And the T/C (dose: 600.0 micrograms/kg/injection, schedule: Q01DX009 (ip), vehicle: saline)?
The T/C was 216 % of control.

What about the T/C (dose: 648.0 micrograms/kg/injection, schedule: Q04DX003 (ip), vehicle: saline) of the same compound?
Its T/C is 152 % of control and 171 % of control and 197 % of control.

And the T/C (dose: 1080.0 micrograms/kg/injection, schedule: Q04DX003 (ip), vehicle: saline)?
The T/C was 198 % of control.

What about the T/C (dose: 1800.0 micrograms/kg/injection, schedule: Q04DX003 (ip), vehicle: saline) of the same compound?
The T/C was 203 % of control and 230 % of control.

And the T/C (dose: 3000.0 micrograms/kg/injection, schedule: Q04DX003 (ip), vehicle: saline)?
Its T/C is 213 % of control and 267 % of control.

Which T/C (dose: 6.25 mg/kg/injection, schedule: Q04DX003 (ip), vehicle: Klucel (hydroxypropylcellulose) (HPC)) does the source give for `CCOC(=O)N1c2ccccc2C=CC1OCC` (configuration not stated) here?
Its T/C is 105 % of control.

What about the T/C (dose: 12.5 mg/kg/injection, schedule: Q04DX003 (ip), vehicle: Klucel (hydroxypropylcellulose) (HPC)) of the same compound?
Its T/C is 105 % of control.

And the T/C (dose: 25.0 mg/kg/injection, schedule: Q04DX003 (ip), vehicle: Klucel (hydroxypropylcellulose) (HPC))?
Its T/C is 89 % of control and 105 % of control.

`CN1CCCCC1CCN1c2ccccc2Sc2ccc(Cl)cc21` (configuration not stated) was tested. Which T/C (dose: 1.56 mg/kg/injection, schedule: Q01DX009 (ip), vehicle: saline) did it give?
The T/C was 109 % of control.

What about the T/C (dose: 3.12 mg/kg/injection, schedule: Q01DX009 (ip), vehicle: saline) of the same compound?
The T/C was 102 % of control.

And the T/C (dose: 6.25 mg/kg/injection, schedule: Q01DX009 (ip), vehicle: saline)?
The T/C was 100 % of control.

What about the T/C (dose: 12.5 mg/kg/injection, schedule: Q01DX009 (ip), vehicle: saline) of the same compound?
Its T/C is 103 % of control.

What about the T/C [1] of the same compound?
The T/C was 94 % of control.
